In PubChem BioAssay (NCI):
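Test compounds were applied to cells in 96-well plates for 48 hours at 5 doses. TGI: total growth inhibition.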

How the values were obtained:
Assay in all cases: growth of human tumour cells (NCI), 48 h
[1] = test system: OVCAR-8 ovarian
[2] = test system: HT29 colon
[3] = test system: HCC-2998 colon
[4] = test system: MOLT-4 leukemia
[5] = test system: NCI/ADR-RES ovarian
[6] = test system: NCI-H23 lung
[7] = test system: NCI-H226 lung
[8] = test system: PC-3 prostate
[9] = test system: SK-MEL-5 melanoma
[10] = test system: BT-549 breast
[11] = test system: NCI-H460 lung
[12] = test system: A498 renal
[13] = test system: LOX IMVI melanoma
[14] = test system: MDA-MB-435
[15] = test system: SW-620 colon
[16] = test system: SNB-75 CNS
[17] = test system: COLO 205 colon
[18] = test system: SNB-19 CNS
[19] = test system: IGROV1 ovarian

Structure (SMILES)	TGI [1] [µM]	TGI [2] [µM]	TGI [3] [µM]	TGI [4] [µM]	TGI [5] [µM]	TGI [6] [µM]	TGI [7] [µM]	TGI [8] [µM]	TGI [9] [µM]	TGI [10] [µM]	TGI [11] [µM]	TGI [12] [µM]	TGI [13] [µM]	TGI [14] [µM]	TGI [15] [µM]	TGI [16] [µM]	TGI [17] [µM]	TGI [18] [µM]	TGI [19] [µM]
CCC(C)OC(=O)/C(Br)=C1/OC(=O)c2ccccc2-c2ccccc21 (centres undefined)	> 100	84.5	39.4	50.7	71.4	> 100	> 100	> 100	56.2	37.1	73.9	> 100	68.2	> 100	> 100	> 100	38.1	> 100	
CSc1nc(Nc2cccc(C(F)(F)F)c2)c2c(N)nn(C)c2n1	> 100	> 100	> 100	> 100	> 100	> 100	> 100	> 100	> 100	> 100	> 100	> 100	> 100	> 100	> 100	> 100	> 100	> 100	> 100
OC1C#CCSCC#C/C=C\1 (centres undefined)	77	> 100	> 100		7.72	> 100	> 100	> 100		> 100	36.5	> 100	> 100	> 100	36.6	> 100	29.3	> 100	> 100
O=C1C(c2c(O)[nH]c3ccc(F)cc23)=Nc2ccccc21	43.8	> 100	> 100	81.5	> 100	> 100	> 100	> 100	> 100	> 100	> 100		> 100	> 100	> 100	15.1	> 100	> 100	> 100
O=[N+]([O-])c1ccc2c(c1)C1=C(CO2)Cc2ccccc2O1	> 100	88	35.3		> 100	59.2	> 100	38.6	29.7	61.9		> 100	30.2	80.5	53.5	> 100	30.6		55.4
Cc1c(N=Nc2ccc(Cl)cc2)c(-c2ccccc2)n(C2OC(CO)C(O)C(O)C2O)c(=S)c1C#N (centres undefined)		33.7		33.2	32.8	22.5		22.4	25.8	29.5	51.7	21.5	32.7	22.2	32.9	32.7	37.7	25.2	29.5
Cn1cc(NC(=O)Nc2cc(C(=O)Nc3cc(C(=O)Nc4ccc(S(=O)(=O)O)c5cc(S(=O)(=O)O)ccc45)n(C)c3)n(C)c2)cc1C(=O)Nc1cc(C(=O)Nc2ccc(S(=O)(=O)O)c3cc(S(=O)(=O)O)ccc23)n(C)c1	> 100	> 100	> 100	> 100	> 100	> 100	> 100	> 100	> 100	> 100	> 100			> 100	> 100	> 100	> 100	> 100	> 100
COC(=O)C(Cc1c[nH]c2ccccc12)NP(=O)(O)OCC1OC(n2cc(I)c(=O)[nH]c2=O)CC1O (centres undefined)	> 100	> 100		> 100	> 100	> 100	> 100	> 100	> 100	> 100	> 100	> 100	> 100	> 100	> 100	> 100	> 100	> 100	> 100
COc1cc(C2c3cc4c(cc3OC3(OC)COC(=O)C23)OCO4)cc(OC)c1OC(C)=O (centres undefined)	> 75.2	> 37.5	14.3	> 100	10.4	> 100		> 36.1	34.6	> 100	> 59.7	97.4	> 82.2	2.23	> 100	> 62.9	> 49.3	> 100	> 100
CCOC(=O)c1nnc2c(C(=O)OCC)c3ccccc3n2c1N	> 100	> 100	> 100	> 100	43.6	> 100		> 100	51.8	> 100	> 100	60.8	> 100	> 100	> 100	67.3	49.6	> 100	38.2
COc1ccc(S(=O)(=O)c2nnc(S(=O)(=O)Cc3ccccc3)s2)cc1	49.4	43.8			> 100	62.3		47.7	34.2	49.8	38.1	39.9		71.8	44	31.8	28.5	36.8	
COc1ccc(-[n+]2nc(S(=O)(=O)O)c(/C=C/c3ccc(N(C)C)cc3)cc2C#N)cc1	> 100	> 100	> 100	> 100	> 100	> 100	> 100	> 100	> 100	> 100		> 100	> 100	> 100	> 100	> 100	> 100	> 100	> 100
Cn1ccc(C(=O)NCCN(CCNC(=O)c2ccn(C)c(=O)c2O)CCNC(=O)c2cccc(=O)n2O)c(O)c1=O	> 100	> 100	> 100		> 100	> 100	> 100	> 100	> 100	> 100	> 100	> 100	> 100	> 100	> 100	> 100	> 100	> 100	> 100
Cc1nn(-c2ccccc2)c2c1C(c1ccc(Cl)cc1)NC(=S)N2 (centres undefined)	43.3	> 100		> 100	68.5	44.5	> 100	47.9	52.1	59.7	60	67.1	31.1	47.4	71.1	> 100	31.2	> 100	28.1
CC(C)=CC[C@]12CCN[C@H]1N(S(=O)(=O)c1ccccc1)c1ccccc12	33.9	39	32.1	75.8	30.5	> 100	36.7	27.4	28.1	33.7	29		31.2	32.5	36.9	44.5	41	51.2	30.8
Cn1c(=O)c2c(nc(Cc3ccccc3)n2CC(=O)O)n(C)c1=O	> 100	> 100	> 100	> 100	> 100	> 100	> 100	> 100	> 100	> 100	> 100	> 100	> 100	> 100	> 100	> 100		> 100	> 100
NC(=O)C(C(N)=O)=C(O)C(=O)/C=C(\O)c1ccccc1	> 100	> 100	> 100		> 100	> 100	> 100	> 100	> 100	> 100	> 100	> 100	> 100	> 100	> 100	> 100	> 100	> 100	> 100
N#Cc1c(N)n(-c2cccc(C(=O)O)c2)c(=O)c2cc([N+](=O)[O-])ccc12	> 100	> 100	> 100		> 100	> 100	> 100	> 100	> 100	> 100	> 100	> 100	> 100	> 100	> 100	> 100	> 100	> 100	
Nc1nc(N)c2c3c(cnc2n1)CC(c1ccccc1)CC3 (centres undefined)	26.6	66.2	> 100	> 100	> 100		> 100	> 100	> 100	81.8	> 100	> 100	21.6	> 100	> 100	35.9	> 100	46.8	21.7
COC(CNC(=O)C(C)NC(=O)/C=C/c1ccccc1)OC (centres undefined)	> 100	> 100		> 100	> 100	> 100	> 100	> 100	> 100	> 100	> 100			> 100	> 100	> 100	> 100	> 100	> 100
N#CCCN(C(=O)Nc1ccccc1)[C@H]1CCCC[C@@H]1N(C(=O)Nc1ccccc1)c1ccccc1	> 100	> 100	> 100	> 100	> 100	> 100	> 100	> 100	> 100	> 100	> 100		> 100	> 100	> 100	> 100	> 100	> 100	> 100
N#Cc1c(-c2ccc(Cl)cc2Cl)nc2[nH][nH]c(=S)n2c1=O	> 100	> 100	> 100	> 100	> 100	> 100	> 100	> 100	> 100	> 100	> 100	> 100	> 100	> 100	> 100		> 100	> 100	> 100
CCCCNC(=S)Nc1nc(C(=O)NNC(=S)Nc2ccccc2)cs1	> 100	> 100	> 100	> 100	> 100	> 100	> 100	> 100	> 100	> 100	> 100	68		> 100	> 100	91.1	> 100	> 100	
COC(=O)c1cc2ccc(N)nc2[nH]c1=O	> 100		> 100		> 100	> 100	> 100	> 100	> 100	> 100	> 100	> 100	> 100	> 100	> 100	> 100	> 100	> 100	> 100
COc1ccc(C(OCC2OC(n3cc(C)c(=O)[nH]c3=O)CC2n2cc(Cn3cc(Cl)c(=O)[nH]c3=O)nn2)(c2ccccc2)c2ccccc2)cc1 (centres undefined)	> 100	> 100	> 100	> 100	> 100	> 100	> 100	> 100	> 100	> 100		> 100	> 100	> 100	> 100	> 100	> 100	> 100	> 100
CCCCCCOC(=O)/C=C/[C@]1(CO)C/C(=C/CC(C(C)C)C(C)C)C(=O)O1	31.6	20.8	6.18	25.6	28.1	25	16.7	24.4	20.3	22.9	20.5	20.6	24.6	15.1	27.7	27.7		22.6	28.9
